Measured values taken from patent publication US20200290950A1, “ALKAMIDE COMPOUNDS AND USES THEREOF” (NORTH CAROLINA STATE UNIVERSITY, priority 2017, published 2020).

Key:
RBL-2H3 cells [1] = experiment: Histamine release, competitive EIA; format: cell-based, rat; settings: RBL-2H3 cells treated with A23187, 1 hr
Procedure: FIGS. 1A-1F. A15 inhibits BMMC and RBL-2H3 cell degranulation. The structure of alkamide A15 is shown with different functional groups and carbons in the fatty acid chain labeled (FIG. 1A). BMMCs were plated and stimulated 4 hrs later with 1 μM A23187 and the indicated concentrations of A15 or vehicle only. The percent degranulation was measured after 1 hr (FIG. 1B). RBL-2H3 cells were treated with A23187 and the percent degranulation was determined 1 hr later (FIG. 1C) or every 10 min over a 1 hr time course (FIG. 1D). RBL-2H3 cells were plated and incubated for 4 hrs before the media was aspirated and replaced with media containing 1 μg/mL IgE anti-DNP. Cells were incubated overnight and washed prior to stimulation. The percent degranulation from RBL-2H3 cells was calculated after stimulation with 50 ng/mL DNP-HSA in combination with the indicated concentrations of A15 or vehicle only after 1 hr (FIG. 1E). RBL-2H3 cells were stimulated for 1 hr in Tyrode's buffer before supernatants were collected and levels of histamine were measured using a competitive inhibition EIA kit (FIG. 1F). Data shown are the means±SEM from 3-4 independent experiments (FIG. 1B, FIG. 1C and FIG. 1F) or the means±SEM of triplicate wells from a representative experiment from 3 independent experiments (FIG. 1D and FIG. 1E). […]

TDI-induced ear swelling = format: in vivo, mouse
Text: Several different model systems were utilized for these experiments. In one model, dorsal root ganglia were obtained from mice and the neurons cultured in vitro. The neurons were then stimulated in the presence/absence of A15 and YM8-85 and the calcium responses monitored by fluorescence microscopy. In the second model, the alkamides were applied to mouse skin in mineral oil. The reactions of these mice to heat, cold, and tactile stimulation was then compared with mice that had not received treatment with A15. In a third model, mice were sensitized to the chemical compound toluene-2,4-diisocyanate (TDI). TDI is an industrial chemical which causes hypersensitive skin lesions and itching in exposed humans and animals. The physiological response to TDI is complex involving type 2 T lymphocytes, cytokines, mast cells, and neurons. Alkamides were applied to sensitized animals and then ear swelling and bouts of scratching were monitored.
A15 and TDI induced hypersensitivity. Mice were sensitized to toluene-2,4-diisocyanate (TDI) via abdominal application. Subsequently, a hypersensitive response was induced in the ear by direct application of TDI and ear thickness measured as a sign of inflammation.

RBL-2H3 cells [2] = experiment: TNF-α ELISA, 18 hrs (Example 3); format: cell-based, rat; settings: 1 μM A23187, 18 hours
Procedure: FIGS. 25A-25B. […] RBL-2H3 cells were plated overnight and stimulated with 1 μM A23187 in the absence or presence of each alkamide for 18 h. Culture supernatants were analyzed for TNF-α levels by ELISA and experiments were performed in triplicate (FIG. 25A). Percent inhibition of TNF-α secretion for each alkamide listed in FIG. 25B. *P<0.05, **P<0.01, ***P<0.001, one-way ANOVA with Dunnett's post hoc test compared to vehicle (FIG. 25A) or A15 (FIG. 25B).
RBL-2H3 cells (1.0×10^5 cells) were incubated overnight in a 24 well plate at 37° C. with 5% CO2. Cells were washed with 1×PBS and stimulated with 1 μM A23187 for 18 hrs in the absence or presence of each compound. The cells were centrifuged (1200×g, 5 min) and the supernatants were collected. The concentration of TNF-α in the supernatants were determined using the TNF-α ELISA kit.

In the case of `CCCCCCC/C=C/C=C/C(=O)NCC(C)C` [A15, (2E,4E)-N-Isobutyldodeca-2,4-dienamide], the release of histamine (RBL-2H3 cells [1]) is reported as “inhibited the release of the vasoactive amine histamine”, the “TDI ear swelling (ear thickness)” value (TDI-induced ear swelling; 0.1%, first experiment (FIG. 13A)) is reported as “significant inhibitory effect” and the “TDI ear swelling (ear thickness)” value (TDI-induced ear swelling; 0.1%, repeated experiment (FIG. 13B)) is reported as “neither A15 nor YM8-85 at 0.1% produced significant inhibition”. The “TDI ear swelling (ear thickness)” value (TDI-induced ear swelling; 1%, first experiment (FIG. 13A)) was “significant responses were not seen” and the “percent inhibition of TNF-α secretion” value (RBL-2H3 cells [2]) was 79%.
